# Data taken from patent publication US7807841B2, “Spiro-containing compounds and compositions as modulators of steroid hormone nuclear receptors” (IRM LLC, priority 2005, dated 2010).
# Target: T1, Androgen Receptor (AR) (Homo sapiens, UniProt P10275)
# T1 sequence (P10275 1-920 Q868H): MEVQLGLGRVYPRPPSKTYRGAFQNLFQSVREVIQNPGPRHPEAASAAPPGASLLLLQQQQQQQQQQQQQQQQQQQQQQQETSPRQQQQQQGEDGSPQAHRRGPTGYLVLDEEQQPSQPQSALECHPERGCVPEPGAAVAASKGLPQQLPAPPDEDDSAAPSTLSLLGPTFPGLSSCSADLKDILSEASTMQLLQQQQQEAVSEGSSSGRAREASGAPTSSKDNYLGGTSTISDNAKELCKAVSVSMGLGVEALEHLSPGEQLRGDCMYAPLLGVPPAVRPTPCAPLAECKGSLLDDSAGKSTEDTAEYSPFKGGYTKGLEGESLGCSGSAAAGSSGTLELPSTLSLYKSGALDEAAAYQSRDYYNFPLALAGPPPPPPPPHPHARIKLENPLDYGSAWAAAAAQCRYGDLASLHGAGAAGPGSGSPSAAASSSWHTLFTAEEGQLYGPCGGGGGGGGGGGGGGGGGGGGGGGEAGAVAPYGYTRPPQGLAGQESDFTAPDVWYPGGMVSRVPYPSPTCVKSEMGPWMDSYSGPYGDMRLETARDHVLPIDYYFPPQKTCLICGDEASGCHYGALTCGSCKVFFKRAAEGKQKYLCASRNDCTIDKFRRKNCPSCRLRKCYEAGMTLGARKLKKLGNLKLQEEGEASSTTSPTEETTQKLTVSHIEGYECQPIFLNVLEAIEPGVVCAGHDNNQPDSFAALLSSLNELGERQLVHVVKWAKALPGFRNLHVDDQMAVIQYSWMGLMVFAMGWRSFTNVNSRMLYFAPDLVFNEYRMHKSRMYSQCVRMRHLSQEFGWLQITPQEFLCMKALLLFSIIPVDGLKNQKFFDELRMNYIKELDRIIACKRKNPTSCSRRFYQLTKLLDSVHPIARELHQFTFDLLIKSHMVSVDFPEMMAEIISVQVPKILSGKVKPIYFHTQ
# Experiment: Functional assay of androgen receptor antagonism (MMTV luciferase reporter in MDA-kb2 cells)
# Format: cell-based
# Details: antagonism of dihydrotestosterone (0.3 nM)-induced AR activity
# Experimental: The AR antagonist activity of the compounds is determined with the MDA-Kb2 cell line (ATCC), which stably expresses the MMTV luciferase reporter. The MMTV promoter is a mouse mammary tumor virus promoter that contains androgen receptor response elements. […] Upon stimulation with AR ligands, such as dihydrotestosterone, the MMTV luciferase reporter can be activated.
# The assay is performed in 384 well plates. Briefly, MDA-kb2 cells are plated in 384 well plates at a density of approximately 2.4×10^4 cells/well in 50 μl medium. The medium is supplemented with 5% charcoal-dextran treated fetal bovine serum (Hyclone). Twenty four hours later, compounds prepared in DMSO are transferred to the cells. The cells are then stimulated with 0.3 nM final concentration of dihydrotestosterone (Sigma) and incubated at 37° C. for another 24 hours before the luciferase activity is assayed with 20 μl of Bright-Glo (Promega) using a luminometer (CLIPR). The expression of luciferase is used as an indicator of dihydrotestosterone-induced AR trans-activation. Each compound is tested in duplicates with a 12-concentration titration. IC50 values (defined as the concentration of test compound required to antagonize 50% of dihydrotestosterone-induced AR activity) are determined from the dose-response curve.
row,SMILES,IC50 [µM]
1,CC12CCC(=O)N1CC1(O2)c2ccccc2C=Cc2ccccc21 (stereo not shown) [FRS-1],0.1 to 1
2,CC12CCCC(=O)N1CC1(O2)c2ccccc2C=Cc2ccccc21 (stereo not shown) [FRS-4],> 10
3,O=C1CCC2(c3ccc(F)cc3)OC3(CN12)c1ccccc1C=Cc1ccccc13 (stereo not shown) [FRS-3],1 to 10
4,O=C1CCC2(C3CC3)OC3(CN12)c1ccccc1C=Cc1ccccc13 (stereo not shown) [FRS-10],0.1 to 1
5,"CC12CCC(=O)N1CC1(O2)c2ccccc2C=Cc2ccccc21 (single isomer, unassigned) [FRS-1 (Chiral Synthesis)]",0.1 to 1
6,O=C1CCC2(c3cccs3)OC3(CN12)c1ccccc1C=Cc1ccccc13 (stereo not shown) [FRS-8],0.1 to 1
7,CC12CCC(=O)N1CC1(O2)c2ccccc2CCc2ccccc21 (stereo not shown) [FRS-13],0.1 to 1
8,O=C1CCC2(c3ccccc3)OC3(CN12)c1ccccc1C=Cc1ccccc13 (stereo not shown) [FRS-2],0.1 to 1
9,O=C1CCCC2(C(F)(F)F)OC3(CN12)c1ccccc1C=Cc1ccccc13 (stereo not shown) [FRS-11],0.1 to 1
10,CC12CCCCC(=O)N1CC1(O2)c2ccccc2C=Cc2ccccc21 (stereo not shown) [FRS-6],1 to 10
11,COc1ccc(C23CCC(=O)N2CC2(O3)c3ccccc3C=Cc3ccccc32)cc1 (stereo not shown) [FRS-5],> 10
12,CCCC12CCC(=O)N1CC1(O2)c2ccccc2C=Cc2ccccc21 (stereo not shown) [FRS-9],0.1 to 1
13,"CC12CCC(=O)N1CC1(O2)c2ccccc2CCc2ccccc21 (single isomer, unassigned) [FRS-13 (Chiral Synthesis)]",0.1 to 1
14,CC12CCCC(=O)N1CC1(O2)c2ccccc2CCc2ccccc21 (stereo not shown) [FRS-14],1 to 10

# Continued, values first:
row,IC50 [µM],SMILES
1,1 to 10,Oc1ccc(C2=NCC3(O2)c2ccccc2C=Cc2ccccc23)cc1 [OXS-1]
2,> 10,CC1(C)OC2(CN1C(=O)Nc1ccc(F)cc1F)c1ccccc1C=Cc1ccccc12 [SOXS-1]
3,1 to 10,CC(=O)N1CC2(OC13CCCCC3)c1ccccc1C=Cc1ccccc12 [SOXS-6]
4,1 to 10,CC1(C)OC2(CN1S(C)(=O)=O)c1ccccc1C=Cc1ccccc12 [SOXS-4]
5,1 to 10,CC(=O)N1CC2(OC1(C)C)c1ccccc1C=Cc1ccccc12 [SOXS-3]
